Data from patent publication US20130116304A1, “TMEM195 ENCODES FOR TETRAHYDROBIOPTERIN-DEPENDENT ALKYLGLYCEROL MONOOXYGENASE ACTIVITY” (priority 2010, published 2013).
One block for each molecule: values may come before it.

Experiments:
[1] = target: T1, alkylglycerol monooxygenase (TMEM195) (Homo sapiens, UniProt Q6ZNB7); assay: Alkylglycerol monooxygenase activity generated in CHO cells by transfection of TMEM195 and ALDH3A2 (pyrenedecanoic acid, HPLC with fluorescence detection); type: biochemical; conditions: mean±SEM
T1 construct: host or cells: CHO-K1 cells, transiently transfected with ExGen 500; pellets opened in water with 0.5% CHAPS
T1 sequence (Q6ZNB7 1-445): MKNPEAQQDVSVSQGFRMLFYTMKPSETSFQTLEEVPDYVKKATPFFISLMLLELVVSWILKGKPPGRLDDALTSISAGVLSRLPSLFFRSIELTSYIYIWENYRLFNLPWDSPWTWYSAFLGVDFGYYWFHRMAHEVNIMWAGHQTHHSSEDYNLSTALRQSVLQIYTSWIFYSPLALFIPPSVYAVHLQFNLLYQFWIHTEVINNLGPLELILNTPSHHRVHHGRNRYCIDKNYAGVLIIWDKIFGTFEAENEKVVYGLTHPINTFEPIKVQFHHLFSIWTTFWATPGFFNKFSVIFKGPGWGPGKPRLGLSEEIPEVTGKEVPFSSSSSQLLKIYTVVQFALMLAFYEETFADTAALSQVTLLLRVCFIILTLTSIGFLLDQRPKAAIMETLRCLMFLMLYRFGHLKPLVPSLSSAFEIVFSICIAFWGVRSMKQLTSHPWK
Protocol: A pyrene-labelled alkylglycerol (1-O-pyrenedecyl-sn-glycerol) was used as substrate which was converted to pyrenedecanal by alkylglycerol monooxygenase. […] The reaction was started by addition of the protein and incubated for 60 min at 37° C. in the dark. Negative controls without protein (concentration of pyrenedecanoic acid <1 nM) and rat liver microsomes as positive controls were always run in parallel. After addition of 30 μl methanol and centrifugation for 5 min at 16,000 g, 10 μl of the sample were injected to a Zorbax XDB-C8 rapid resolution column (Agilent Technologies, Vienna, Austria) using an Agilent 1200 Series HPLC system. […] Pyrenedecanoic acid was detected by fluorescence (340 nm excitation and 400 nm emission, detection limit 1 nM).
80,000 Chinese hamster ovary Ki cells (CHO-K1, LGC Promochem, Wesel, Germany) were transfected with 1 μg of expression plasmids or plasmid pools using the ExGen 500 transfection agent (Fermentas, St. Leon-Rot, Germany) and standard protocols. […] For control of transfection efficiency, a plasmid encoding enhanced green fluorescent protein (pEGFP-N1, Clonetech, Mountain View, Calif., USA) was used and fluorescence quantified directly in the culture plates by a Typhoon 9410 scanner (GE Healthcare). […] Alkylglycerol monooxygenase activity (22) and fatty aldehyde dehydrogenase activity (31) were then determined as described.

[2] = target: T2, alkylglycerol monooxygenase (Rattus norvegicus, UniProt A0JPQ8); conditions: rat liver microsomes; from reference (22); cited from earlier work
T2 construct: those found in rat liver microsomes (KM 8.90 μM for 1-O-pyrenedecylglycerol); from tissue; host or cells: rat liver microsomes
T2 sequence (A0JPQ8 1-447): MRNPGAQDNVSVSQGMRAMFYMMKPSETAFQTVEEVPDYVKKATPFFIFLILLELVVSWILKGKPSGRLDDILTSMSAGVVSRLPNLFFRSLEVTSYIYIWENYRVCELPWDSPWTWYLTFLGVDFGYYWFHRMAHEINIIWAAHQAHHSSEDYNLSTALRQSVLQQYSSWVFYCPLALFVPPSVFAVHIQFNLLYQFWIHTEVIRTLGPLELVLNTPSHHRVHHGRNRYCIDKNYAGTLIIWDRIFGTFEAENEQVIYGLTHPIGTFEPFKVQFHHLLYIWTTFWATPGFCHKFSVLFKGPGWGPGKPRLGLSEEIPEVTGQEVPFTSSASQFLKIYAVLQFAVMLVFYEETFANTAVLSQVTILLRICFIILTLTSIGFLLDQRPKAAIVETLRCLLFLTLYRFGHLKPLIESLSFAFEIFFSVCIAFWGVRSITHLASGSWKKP

[3] = substrate: C[C@H](O)[C@H](O)[C@H]1CNc2nc(N)[nH]c(=O)c2N1; assay: purified protein, by the assay type; conditions: other: activity generated in CHO cells by transfection of TMEM195 and ALDH3A2; KM for substrate or cofactor; mean±SEM; 37.0 °C

Molecule: C[C@H](O)[C@H](O)[C@H]1CNc2nc(N)[nH]c(=O)c2N1 [tetrahydrobiopterin]
Km [2]: 2.6 µM

B1: alkylglycerol monooxygenase (TMEM195) (Homo sapiens) (protein)
chain: T1 sequence (Q6ZNB7 1-445)
Km [3]: 2.58 ± 0.42 µM

Further lines, with some results ahead:

IC50 ([1]; activity generated in CHO cells by transfection, read-out: 50% inhibition of alkylglycerol monooxygenase activity): 1390 ± 380 nM
Molecule: c1cnc2c(c1)ccc1cccnc12 [1,10-Phenanthroline]

Km ([1]; activity generated in CHO cells by transfection of TMEM195 and ALDH3A2, KM for substrate or cofactor, read-out: Michaelis Menten constant (KM)): 11 ± 1.1 µM
Molecule: OC[C@H](O)COCCCCCCCCCCc1ccc2ccc3cccc4ccc1c2c34 [1-O-pyrenedecylglycerol, 1-O-pyrenedecyl-sn-glycerol]
Km [2]: 8.9 µM
